This passage reports IC50 and EC50 results from patent US20080027079A1, “DIHYDROOROTATE DEHYDROGENASE INHIBITORS WITH SELECTIVE ANTI-MALARIAL ACTIVITY” (Board of Regents, University of Texas System, priority 2006, published 2008).

Assay [1] deals with T1, P. falciparum dihydroorotate dehydrogenase (pfDHODH) (Plasmodium falciparum, UniProt Q08210).
T1 sequence (Q08210 24-569): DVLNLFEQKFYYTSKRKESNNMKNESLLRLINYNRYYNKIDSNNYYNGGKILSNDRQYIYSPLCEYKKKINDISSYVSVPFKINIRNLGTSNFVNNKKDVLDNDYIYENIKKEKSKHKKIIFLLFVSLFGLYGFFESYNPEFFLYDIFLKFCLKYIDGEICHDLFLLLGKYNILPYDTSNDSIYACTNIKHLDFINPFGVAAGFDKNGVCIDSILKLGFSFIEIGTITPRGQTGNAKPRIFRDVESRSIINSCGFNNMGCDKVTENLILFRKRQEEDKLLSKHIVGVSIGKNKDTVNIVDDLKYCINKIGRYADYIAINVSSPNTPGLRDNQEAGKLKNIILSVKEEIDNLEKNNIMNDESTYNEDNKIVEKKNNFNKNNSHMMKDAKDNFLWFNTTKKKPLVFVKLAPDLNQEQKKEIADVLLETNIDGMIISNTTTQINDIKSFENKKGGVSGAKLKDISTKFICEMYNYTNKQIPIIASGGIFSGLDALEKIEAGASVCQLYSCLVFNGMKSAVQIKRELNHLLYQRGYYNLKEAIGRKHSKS
Nature of the assay: biochemical. As to the method:
(§1) Measurement of enzyme inhibition. For studying inhibition of Plasmodium or human DHODH enzyme, two assays that are in routine use are described, for example, in Baldwin, et al. (2002) J Biol Chem., 277, 41827-41834, and Baldwin, et al. (2005) J. Biol. Chem., 280. 21847-21853. Briefly, these assays are as follows: 1) A […] assay thay that monitors 2,6-dichloroindophenol (DCIP) reduction at 600 nm (e=18.8 mM^−1 cm^−1) is performed as either a continuous assay where absorbance is recorded over time. The assay solution containing 100 mM HEPES, pH 8.0, 150 mM NaCl, 10% glycerol, 0.05% Triton X-[…] CoQ0 (coenzyme QD), […] L-dihydroorotate, and […] DCIP. Reactions are initiated by addition of enzyme to a final concentration of 5-50 nM and the temperature is maintained at 25° C with a circulating water bath. 2) A direct assay that follows the production of orotic acid by measuring the absorbance change at 287 nm (ε=4.3 mM^−1 cm^−1); DCIP is not included, but all other components of the assay are as described in method one. Inhibitor stocks are prepared in DMSO, and the inhibitors, such as GR-34, are added to these assays over a concentration range that encompasses their IC50 value and, the IC50's are determined from a plot of reaction rate in the presence of inhibitor/reaction rate in the absence of inhibitor (vi/vo) versus inhibitor concentration (Eq. 1). [formula]

The test system of the next assay is P. falciparum 3D7. Nature of the assay: 3H-hypoxanthine uptake in P. falciparum-infected erythrocytes in culture (whole cell assay). The assay is classed as cell-based. The note with it: Plasmodium falciparum, Erythrocyte; 3D7 strain, in vitro. As to the method:
In vitro evaluation of compound efficacy on the human malaria parasite, P. falciparum. To study inhibition of cell proliferation, ^3H-hypoxanthine uptake is measured in drug-treated, P. falciparum-infected erythrocytes grown in culture, pursuant to the methodology of Desjardins, et al. (1979) Antimicrobial Agents and Chemotherapy 16, 710-718, and Zhang and Rathod (2002) Science 296, 545-547.

The target of assay [2] is human dihydroorotate dehydrogenase (hDHODH) (Homo sapiens, UniProt Q02127). Nature of the assay: hDHODH enzyme inhibition (DCIP colorimetric or direct orotate assay). In kind it is biochemical. The protocol: as §1
Chain of human dihydroorotate dehydrogenase (hDHODH) (Q02127 whole entry): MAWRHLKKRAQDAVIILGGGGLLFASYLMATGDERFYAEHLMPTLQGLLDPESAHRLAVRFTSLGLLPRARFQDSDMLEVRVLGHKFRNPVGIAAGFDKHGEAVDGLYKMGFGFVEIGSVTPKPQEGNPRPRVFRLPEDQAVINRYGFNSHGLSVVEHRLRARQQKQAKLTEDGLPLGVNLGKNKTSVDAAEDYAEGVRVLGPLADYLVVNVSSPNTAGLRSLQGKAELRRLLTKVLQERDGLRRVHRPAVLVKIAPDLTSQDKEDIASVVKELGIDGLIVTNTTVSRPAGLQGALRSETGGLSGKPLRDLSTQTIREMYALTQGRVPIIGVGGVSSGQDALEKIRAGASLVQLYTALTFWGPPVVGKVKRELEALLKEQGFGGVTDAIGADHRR

Read-outs that look alike come from different tables or passages of the source.

As a reminder, the IC50 is the concentration at which inhibition is half-maximal. Consider `Cc1nc2ncnn2c(Nc2ccc3ccccc3c2)c1C` [5,6-dimethyl-N-(naphthalen-2-yl)-[1,2,4]triazolo[1,5-a]pyrimidin-7-amine], for which the IC50 in assay [1] (read-out: IC50 pf DHODH) is 130 nM.

`CCc1cc(Nc2ccc3ccccc3c2)n2ncnc2n1` [5-ethyl-N-(naphthalen-2-yl)-[1,2,4]triazolo[1,5-a]pyrimidin-7-amine]: the IC50 in assay [1] (read-out: IC50 pf DHODH) worked out at 280 nM.

For orientation: EC50 means the concentration needed to bring the measured effect to its halfway point. The low end stands for a more potent agent, the high end for a less potent agent. As for `Cc1cc(Nc2cc3ccccc3cc2O)n2ncnc2n1` [5-methyl-N-(3-hydroxynaphthalen-2-yl)-[1,2,4]triazolo[1,5-a]pyrimidin-7-amine], the IC50 in assay [1] (read-out: IC50 pf DHODH) worked out at 2400 nM. Besides, the EC50 in the assay with P. falciparum 3D7 came to 600 nM.

For `Cc1cc(Nc2ccc3c(=O)ccoc3c2)n2ncnc2n1` [5-methyl-N-(4H-chromen-4-on-7-yl)-[1,2,4]triazolo[1,5-a]pyrimidin-7-amine], the half-inhibitory concentration (IC50) is 1900 nM in assay [1] (read-out: IC50 pf DHODH) and greater than 200000 nM in assay [2].

With `Cc1cc(Nc2ccc3cc4ccccc4cc3c2)n2ncnc2n1` [5-methyl-N-(anthracen-2-yl)-[1,2,4]triazolo[1,5-a]pyrimidin-7-amine], the IC50 in assay [1] (read-out: IC50 pf DHODH) is 23 nM; in assay [2] it was greater than 200000 nM. For the same compound, the EC50 in the assay with P. falciparum 3D7 stood at 120 nM.

Take `Cc1cc(Nc2ccc3ccccc3c2)n2ncnc2n1` [5-methyl-N-(naphthalen-2-yl)-[1,2,4]triazolo[1,5-a]pyrimidin-7-amine]: in assay [2], the IC50 is greater than 600000 nM. Moreover, in the assay with P. falciparum 3D7, the EC50 came to 50 nM.

Consider `Cc1cc(Nc2cnc3ccccc3c2)n2ncnc2n1` [5-methyl-N-(quinolin-3-yl)-[1,2,4]triazolo[1,5-a]pyrimidin-7-amine], for which the half-inhibitory concentration (IC50) is 2000 nM in assay [1] (read-out: IC50 pf DHODH) and greater than 200000 nM in assay [2].

For `Cc1cc(Nc2ccc3ncccc3c2)n2ncnc2n1` [5-methyl-N-(quinolin-6-yl)-[1,2,4]triazolo[1,5-a]pyrimidin-7-amine], the IC50 in assay [1] is 1300 nM; in assay [2] it was greater than 200000 nM.

With `FC(F)(F)c1cc(Nc2ccc3ccccc3c2)n2ncnc2n1` [5-trifluoromethyl-N-(naphthalen-2-yl)-[1,2,4]triazolo[1,5-a]pyrimidin-7-amine], the values for the IC50 in assay [1] (read-out: IC50 pf DHODH) and in assay [2] were 126 nM and greater than 200000 nM, respectively.

On to `Cc1nc2ncnn2c(Nc2ccc3cc4ccccc4cc3c2)c1C` [N-(anthracen-2-yl)-5,6-dimethyl-[1,2,4]triazolo[1,5-a]pyrimidin-7-amine], for which the IC50 in assay [1] (read-out: IC50 pf DHODH) is 250 nM.

As for `CCc1cc(Nc2ccc3cc4ccccc4cc3c2)n2ncnc2n1` [N-(anthracen-2-yl)-5-ethyl-[1,2,4]triazolo[1,5-a]pyrimidin-7-amine], the IC50 in assay [1] (read-out: IC50 pf DHODH) was found to be 240 nM.
